Results from US9060517B2, “Nitrogenated heterocyclic compound and agricultural or horticultural fungicide” (Nippon Soda Co., Ltd., priority 2011, dated 2015).
Where two headings read alike, the source gives them in different places.

How the values were obtained:
Type in all cases: in vivo
[1] = system: apple scab pathogen (Venturia inaequalis); experiment: Apple scab control test (100 ppm spray on apple seedlings); settings: 336 h; apple seedlings (Ralls Janet), emulsion sprayed at 100 ppm, inoculated with Venturia inaequalis, 2 weeks
Procedure: Ralls Janet, leaf stage: 3 to 4) cultivated in unglazed pots and allowed to air-dry at room temperature. Subsequently, the seedlings were inoculated with conidiospores of apple scab pathogen (Venturia inaequalis) followed by holding for 2 weeks indoors at 20° C. and high humidity using a 12 hour light/dark cycle. The appearance of lesions on the leaves was compared with untreated seedlings to determine control effects.

[2] = system: cucumber gray mold pathogen (Botrytis cinerea); experiment: Cucumber gray mold control test; settings: 96 h, cucumber seedlings (Sagami Hanjiro), emulsion sprayed at 100 ppm, 4 days
Procedure: Sagami Hanjiro, leaf stage: cotyledon) cultivated in unglazed pots, and allowed to air-dry at room temperature. Subsequently, the seedlings were drip-inoculated with conidiospore suspensions of cucumber gray mold pathogen (Botrytis cinerea) followed by holding for 4 days in a dark room at 20° C. and high humidity. The appearance of lesions on the leaves was compared with untreated seedlings to determine control effects.

[3] = system: rice blast pathogen (Magnaporthe grisea); settings: rice seedlings (Koshihikari), 400 ppm dropped onto water surface, inoculated two days later
[4] = system: rice blast pathogen (Magnaporthe grisea); settings: rice seedlings (Koshihikari), 400 ppm dropped onto water surface, inoculated 14 days later

SMILES	pest or weed control at 100 ppm [1]	pest or weed control at 100 ppm [2]	control effects [3]	control effects [4]
CC(=O)C(C)(C)c1c(F)cccc1Oc1cnc2c(F)cccc2n1 [Compound 1-10, 3-[2-fluoro-6-(5-fluoro-quinoxalin-2-yloxy)-phenyl]-3-methyl-butan-2-one]	≥ 75%	≥ 75%		
CC(C)OC(=O)C(C)(C)c1ccccc1Oc1cnc2c(F)c(F)ccc2n1 [Compound 1-24]			B (Control value of 40% to less than 60%)	
COC(C)(C)c1ncccc1Oc1nc2ccc(F)c(F)c2nc1C [Compound 1-35, 5,6-difluoro-2-[2-(1-methoxy-1-methyl-ethyl)-pyridin-3-yloxy]-3-methyl-quinoxaline]	≥ 75%	≥ 75%		
Cc1nc2c(F)cccc2cc1Oc1cccnc1C(C)(C)O [a-7, 2-[(8-fluoro-2-methylquinolin-3-yloxy)pyridine-2-yl]propan-2-ol]	≥ 75%	≥ 75%		
CC(C)(O)c1ncccc1Oc1cnc2c(F)cccc2c1 [a-8]				B (Control value of 40% to less than 60%)
CC(=O)c1ncccc1Oc1cc2cccc(F)c2nc1C [a-9, 1-[3-(2-methyl-8-fluoroquinolin-3-yloxy)-pyridin-2-yl]-ethanone]	≥ 75%			
CC(C)(C#N)c1ncccc1Oc1cnc2c(F)cccc2c1 [a-11, 2-[3-(8-fluoro-quinolin-3-yloxy)-pyridin-2-yl]-2-methylpropionitrile]	≥ 75%	≥ 75%		
CCOC(=O)C(C)(C)c1ncccc1Oc1cnc2c(F)cccc2c1 [a-12, 2-[3-(8-fluoro-quinolin-3-yloxy)-pyridin-2-yl]-2-methylpropionic acid ethyl ester]	≥ 75%	≥ 75%		
CC(=O)C(C)(C)c1ncccc1Oc1cnc2c(F)cccc2c1 [a-15, 3-[3-(8-fluoro-quinolin-3-yloxy)-pyridin-2-yl]-3-methyl-butan-2-one]	≥ 75%	≥ 75%		
COC(C)(C)c1ncccc1Oc1cc2cccc(F)c2nc1C [a-16, 3-[2-(2-methoxy-2-propyl)pyridin-3-yloxy]-8-fluoro-2-methylquinoline]	≥ 75%	≥ 75%		
CC(C)(C(=O)O)c1ncccc1Oc1cnc2c(F)cccc2c1 [a-19, 2-[3-(8-fluoro-quinolin-3-yloxy)-pyridin-2-yl]-2-methylpropionic acid]	≥ 75%			
CC(C)(C=O)c1ncccc1Oc1cnc2c(F)cccc2c1 [a-21, 2-[3-(8-fluoro-quinolin-3-yloxy)-pyridin-2-yl]-2-methyl-propioaldehyde]	≥ 75%	≥ 75%		
CCNC(=O)C(C)(C)c1ncccc1Oc1cnc2c(F)cccc2c1 [a-55, N-ethyl-2-[3-(8-fluoro-quinolin-3-yloxy)-pyridin-2-yl]-isobutylamide]	≥ 75%			
CCOC(C)(C)c1ncccc1Oc1cc2cccc(F)c2nc1C [a-56, 3-[2-(2-ethoxy-2-propyl)pyridin-3-yloxy]-8-fluoro-2-methylquinoline]	≥ 75%	≥ 75%		
